{"source": "patent US20260218132A1", "about": "“METHODS AND MATERIALS FOR GENERATING STEM CELL-DERIVED ENDOCRINE CELL TYPES” (Mayo Foundation for Medical Education and Research, priority 2023, published 2026)", "key": {"delta progenitor cells [1]": {"test_system": "delta progenitor cells", "experiment": "Differentiation of delta progenitor cells to pre-delta cells (stage 5), flow cytometry", "assay_type": "cell-based, human", "procedure": "(§1) The differentiation was carried out in six stages. The generation of PP1 cells from HUES8 cells was carried out using prior protocols with modifications (see, e.g., Pagliuca et al., Cell, 159:428-439 (2014); and Peterson et al., Nat. Commun., 11:Article No. 2241 (14 pages) (2020)); and the delta cell differentiation was further carried out using PP1 cells. The media changes for differentiation were as follows:\n(§2) The cell clusters collected during the course of differentiation at different stages were dissociated into single cell suspension by treating with TrypLE Express at 37° C. for 10 minutes after washing twice with phosphate buffered saline (PBS). The enzyme activity was quenched by adding equal volume of S3 media to prevent further degradation, and dispersed single cells were washed with PBS, fixed in 4% paraformaldehyde (PFA) for 20 minutes and subsequently stored at 4° C. until further use. On the day of staining, the cells were passed through 40 μm filter and washed twice with PBS before permeabilizing in block solution (PBS+0.1% Triton X-100+5% donkey serum; PBST). After 40 minutes of blocking, the cells were incubated with primary antibodies in block solution for 1 hour at room temperature (RT), washed twice with PBST, and then incubated with appropriate secondary antibodies in block solution for 1 hour at RT. Finally, cells were washed twice with PBST and resuspended in PBS at a concentration of 1×10^6 cells/mL. The stained cells were acquired in Attune flow cytometer and were analyzed using FlowJo v10 software. The Pdx1 (R&D Systems, AF2419) antibody was used at 1:250, Nkx6.1 (Iowa Hybridoma Bank, F55A12) at 1:100, insulin (Iowa Hybridoma Bank, GN-ID4) at 1:250, glucagon (LSBio, LS-B10219) at 1:25,000, and somatostatin (Santa Cruz Biotechnologies, SC-25262) at a dilution of 1:8000. The secondary antibodies are either donkey-anti-goat-Alexa Fluor 488 (Invitrogen, A-11055, 1:1000), donkey-anti-rabbit-Alexa Fluor 488 (Invitrogen, A-21206, 1:1000), donkey-anti-rat-Alexa Fluor 594 (Invitrogen, A-21209, 1:1000), or donkey-anti-mouse-Alexa Fluor 647 (Invitrogen, A-31571 1:1000).\n(§3) Compounds that increased the percentage of Pre-Delta (PD) cells (positive for somatostatin (SST) while negative for both insulin (INS) and glucagon (GCG)) and reduced the percentage of polyhormonal cells were considered as hits. […] The library was screened at 20 μM, 2 μM, and 0.2 μM final concentrations (FIG. 22)."}, "delta progenitor cells [2]": {"test_system": "delta progenitor cells", "experiment": "High-content small molecule screen on delta progenitor cells (step 5)", "assay_type": "cell-based, human", "settings": "library screened at 20 μM, 2 μM and 0.2 μM", "procedure": "as §3"}, "PDX1^+/NKX6.1^− PP cells": {"test_system": "PDX1^+/NKX6.1^− PP cells", "experiment": "Differentiation of PP cells to delta progenitor cells (stage 4), hormone expression by flow cytometry", "assay_type": "cell-based, human", "settings": "stage 3 cells treated independently or in combination for 5 days", "procedure": "After 72 hours of culture in mTeSR, the clusters of HUES8 cells were allowed to settle at the bottom of the spinner flask, and spent media was replaced with stage specific differentiation media containing specific growth factors and small molecules.\nas §1\n(§4) The cell clusters collected during the course of differentiation at different stages were dissociated into single cell suspension by treating with TrypLE Express at 37° C. for 10 minutes after washing twice with phosphate buffered saline (PBS). The enzyme activity was quenched by adding equal volume of S3 media to prevent further degradation, and dispersed single cells were washed with PBS, fixed in 4% paraformaldehyde (PFA) for 20 minutes and subsequently stored at 4° C. until further use. […] The stained cells were acquired in Attune flow cytometer and were analyzed using FlowJo v10 software. […]"}, "PP cells": {"test_system": "PP cells", "experiment": "PP cells treated with FGF receptor inhibitors along with RA, somatostatin expressing cells", "assay_type": "cell-based, human", "settings": "control having only RA, six-well plates, 5 days", "procedure": "as §4, with “use. On the day of staining, the cells were passed through 40 μm filter and washed twice with PBS before permeabilizing in block solution (PBS+0.1% Triton X-100+5% donkey serum; PBST).” for “use.”\nTo further explore the specificity of inhibition of FGF receptors, PP cells were treated with five additional FGF receptor inhibitors (AZD4547, erdafitinib, roblitinib, pemigatinib, or BGJ398) along with RA (FIG. 7). […] To find an effective concentration of these compounds, differentiated PP cells were transferred to six-well plates and treated with either control having only RA or each FGF receptor inhibitors along with RA for 5 days and quantified the percentage of somatostatin expressing cells."}, "pre-delta cells [3]": {"test_system": "pre-delta cells", "experiment": "Differentiation of pre-delta cells to SCδ cells (stage 6), flow cytometry and immunohistochemistry", "assay_type": "cell-based, human", "procedure": "as §1, §2\nThe differentiated cell clusters or human islets were fixed in 4% PFA and stored at 4° C. until further use. The clusters were washed three times with PBS, set in Histogel (Thermo), embedded in paraffin, and sectioned at 4 μm for histological analysis. Antigen retrieval was performed in citrate buffer (pH 6.5) for 1 hour in boiling water bath on deparaffinized and rehydrated sections, and then allowed to cool for 40 minutes. Sections were then permeabilized and blocked in block solution (PBS+0.1% Triton X-100+5% donkey serum; PBST) for 40 minutes. Primary antibodies were added at appropriate dilutions and incubated overnight at 4° C. On the following day, secondary antibodies were added for 1 hour at room temperature. After thorough rinse with PBST, sections were mounted in Vectashield (Vector Laboratories), covered with coverslips, and sealed with nail polish. The sections were visualized using Zeiss microscope. The secondary antibodies are either donkey-anti-goat-Alexa Fluor 488 (Invitrogen, A-11055, 1:1000), donkey-anti-rabbit-Alexa Fluor 488 (Invitrogen, A-21206, 1:1000), donkey-anti-rat-Alexa Fluor 594 (Invitrogen, A-21209, 1:1000), or donkey-anti-mouse-Alexa Fluor 647 (Invitrogen, A-31571 1:1000)."}, "pre-delta cells [4]": {"test_system": "pre-delta cells", "experiment": "High-content small molecule screen and dose response on pre-delta cells (step 6)", "settings": "for cell loss at higher concentration: dose response, step 6", "description": "Clusters were collected from either Stage 3, or Stage 4, or Stage 5 completed flasks, washed three times with PBS, dispersed into single cells using TrypLE Express for 10 minutes, and quenched using S3 media. […] Chemical compounds were then introduced to each well and incubated at 37° C. in a humidified atmosphere. The fresh media and compounds were added every other day by replacing the spent media. After 5 days for Stage 3 completed cells, 4 days for Stage 4 completed cells, and 7 days for Stage 5 completed cells of incubation, the cells were fixed with 4% PFA and stained for insulin, glucagon, and somatostatin as described herein. Stained cells were imaged with the Cellomics Scan Version 6.6.0 (Thermo Scientific HCS Studio). Twenty-five view fields were captured for each well and analyzed. The percentage of cells expressing only somatostatin was calculated for each well.\nThus, to further increase the percentage of monohormonal SC-δ cells, a small molecule screen on pre-delta cells was conducted, as described earlier with a similar set of criteria (FIG. 2D)."}}}
{"smiles": "Cc1cccc(-c2[nH]ncc2-c2ccc3ncccc3n2)n1", "note": "[Alk5 inhibitor II, 2-[5-(6-methylpyridin-2-yl)-1H-pyrazol-4-yl]-1,5-naphthyridine]", "values": [{"measurement": "monohormonal SC-delta cells on omission of the compound from stage 5", "setting": "delta progenitor cells [1]; Indolactam V and γ-secretase inhibitor XX without Alk5inh II, FIG. 24C", "result": "significant reduction in monohormonal SC-delta cells"}, {"measurement": "resulting cells express somatostatin", "setting": "delta progenitor cells [1]; delta progenitor cells treated with Alk5i II, FIG. 1D", "result": "approximately 8%"}, {"measurement": "SC-α cells population", "setting": "delta progenitor cells [1]; stage 5, flow cytometry", "result": "14.78±1.72", "unit": "%"}, {"measurement": "SC-β cells population", "setting": "delta progenitor cells [1]; stage 5, flow cytometry", "result": "5.20±0.72", "unit": "%"}, {"measurement": "SST^+GCG^+INS^+ cells", "setting": "delta progenitor cells [1]; stage 5, flow cytometry", "result": "15.46±15.07", "unit": "%"}, {"measurement": "SST^−GCG^−INS^− cells", "setting": "delta progenitor cells [1]; stage 5, flow cytometry", "result": "20.97±7.59", "unit": "%"}, {"measurement": "polyhormonal cells", "setting": "delta progenitor cells [1]; stage 5, flow cytometry", "result": "54.88±6.74", "unit": "%"}, {"measurement": "pre-delta cells (somatostatin positive, insulin and glucagon negative)", "setting": "delta progenitor cells [1]; stage 5, flow cytometry", "result": "4.11±1.12", "unit": "%"}]}
{"smiles": "c1ccc2c(-c3cnn4cc(-c5ccc(N6CCNCC6)cc5)cnc34)ccnc2c1", "note": "[LDN193189, 4-[6-(4-piperazin-1-ylphenyl)pyrazolo[1,5-a]pyrimidin-3-yl]quinolin]", "values": [{"measurement": "screen outcome, step 5 (increase of pre-delta cells, fewer polyhormonal cells)", "setting": "delta progenitor cells [2]", "result": "primary hits"}]}
{"smiles": "CCN(CC)CCCCNc1ncc2cc(-c3cc(OC)cc(OC)c3)c(NC(=O)NC(C)(C)C)nc2n1", "note": "[PD173074, 1-tert-butyl-3-[2-[4-(diethylamino)butylamino]-6-(3,5-dimethoxyphenyl)pyrido[2,3-d]pyrimidin-7-yl]urea]", "values": [{"measurement": "somatostatin expression in PP cells", "setting": "PDX1^+/NKX6.1^− PP cells", "result": "induced a small population of somatostatin expression"}]}
{"smiles": "CC1=C(/C=C/C(C)=C/C=C/C(C)=C/C(=O)O)C(C)(C)CCC1", "note": "[RA, retinoic acid]", "values": [{"measurement": "somatostatin expressing cells", "setting": "PP cells", "result": "2.53±0.15", "unit": "%"}]}
{"smiles": "C=C[C@@]1(C)CC(=O)[C@]2(O)[C@@]3(C)[C@@H](O)CCC(C)(C)[C@@H]3[C@H](O)[C@H](OC(C)=O)[C@@]2(C)O1", "note": "[forskolin, [(3R,4aR,5S,6S,6aS,10S,10aR,10bS)-3-ethenyl-6,10,10b-trihydroxy-3,4a,7,7,10a-pentamethyl-1-oxo-5,6,6a,8,9,10-hexahydro-2H-benzo[f]chromen-5-yl]acetate]", "values": [{"measurement": "SCδ cells", "setting": "pre-delta cells [3]; 200 μM for 7 days, stage 6, flow cytometry", "result": "17.51±0.88", "unit": "%"}, {"measurement": "percentage of SC-δ cells after long-term culture", "setting": "pre-delta cells [3]; forskolin withdrawn from S3 media, cultured for additional two weeks", "result": "31.15±1.30", "unit": "%"}, {"measurement": "SC-α cells", "setting": "pre-delta cells [3]; stage 6, flow cytometry", "result": "0.79±0.14", "unit": "%"}, {"measurement": "SST^+GCG^+INS^+ cells", "setting": "pre-delta cells [3]; stage 6, flow cytometry", "result": "11.02±0.60", "unit": "%"}, {"measurement": "SST^−GCG^+INS^+ cells", "setting": "pre-delta cells [3]; stage 6, flow cytometry", "result": "2.36±0.36", "unit": "%"}, {"measurement": "cell loss at higher concentration", "setting": "pre-delta cells [4]", "result": "severe cell loss"}]}
{"smiles": "CC(C)[C@H]1C(=O)N[C@H](CO)Cc2c[nH]c3cccc(c23)N1C", "note": "[indolactam V, (10S,13S)-13-(hydroxymethyl)-9-methyl-10-propan-2-yl-3,9,12-triazatricyclo[6.6.1.0^4,15]pentadeca-1,4(15),5,7-tetraen-11-one]", "values": [{"measurement": "screen outcome, step 5 (increase of pre-delta cells, fewer polyhormonal cells)", "setting": "delta progenitor cells [2]", "result": "primary hits"}, {"measurement": "dose response, monohormonal SCδ cells", "setting": "pre-delta cells [4]; FIG. 2F, FIG. 24B", "result": "dose dependent increase in monohormonal SCδ cells"}, {"measurement": "cell loss at higher concentration", "setting": "pre-delta cells [4]", "result": "severe cell loss"}, {"measurement": "screen outcome, step 6 (increase of monohormonal SC-δ cells)", "setting": "pre-delta cells [4]; library screened at 20 μM, 2 μM and 0.2 μM", "result": "primary hits"}]}
{"smiles": "C[C@H](NC(=O)Cc1cc(F)cc(F)c1)C(=O)N[C@@H]1C(=O)N(C)c2ccccc2-c2ccccc21", "note": "[γ-secretase inhibitor XX, N-[(1S)-2-[[(7S)-6,7-dihydro-5-methyl-6-oxo-5H-dibenz[b,d]azepin-7-yl]amino]-1-methyl-2-oxoethyl]-3,5-difluoro-benzeneacetamide]", "values": [{"measurement": "screen outcome, step 5 (increase of pre-delta cells, fewer polyhormonal cells)", "setting": "delta progenitor cells [2]", "result": "primary hits"}]}
